Experiments:
[1] = tested on: galium; assay: Test A postemergence; type: in vivo, Galium aparine
Outline: (§1)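 Weeds and crops in loam–sand blend were sprayed preemergence onto soil or postemergence at 2–10 cm (one- to two-leaf stage). Test chemicals were in a non-phytotoxic solvent with surfactant. After 10 days in the greenhouse, injury was rated visually against untreated controls on a 0 (no effect) to 100 (complete control) scale.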

[2] = tested on: goosegrass; assay: Test A preemergence; type: in vivo, Eleusine indica
Outline: as §1

[3] = tested on: pigweed, palmer; assay: Test A postemergence; type: in vivo, Amaranthus palmeri
Outline: as §1

[4] = tested on: ducksalad; assay: Test B flooded paddy test; type: in vivo, Heteranthera limosa; conditions: 250 g ai/ha, Flood, 13 days, 0 to 100 scale (0 no effect, 100 complete control)
Outline: (§2)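 Two-leaf plants, 3 cm flood, in-water application, 13-day greenhouse hold, visual 0–100 rating vs untreated checks.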

[5] = tested on: ragweed; assay: Test A postemergence; type: in vivo, Ambrosia artemisiifolia
Outline: as §1

[6] = tested on: horseweed; assay: Test A postemergence; type: in vivo, Erigeron canadensis
Outline: as §1

[7] = tested on: pigweed, palmer; assay: Test A preemergence; type: in vivo, Amaranthus palmeri
Outline: as §1

[8] = tested on: ryegrass, Italian; assay: Test A postemergence; type: in vivo, Lolium multiflorum
Outline: as §1

[9] = tested on: rice; assay: Test B flooded paddy test; type: in vivo, Oryza sativa; conditions: 250 g ai/ha, Flood, 13 days, 0 to 100 scale (0 no effect, 100 complete control)
Outline: as §2

[10] = tested on: corn; assay: Test A postemergence; type: in vivo, Zea mays
Outline: as §1

[11] = tested on: barnyardgrass; assay: Test B flooded paddy test; type: in vivo, Echinochloa crus-galli; conditions: 250 g ai/ha, Flood, 13 days, 0 to 100 scale (0 no effect, 100 complete control)
Outline: as §2

[12] = tested on: oat, wild; assay: Test A preemergence; type: in vivo, Avena fatua
Outline: as §1

[13] = tested on: wheat; assay: Test A preemergence; type: in vivo, Triticum aestivum
Outline: as §1

[14] = tested on: corn; assay: Test A preemergence; type: in vivo, Zea mays
Outline: as §1

[15] = tested on: kochia; assay: Test A preemergence; type: in vivo, Bassia scoparia
Outline: as §1

[16] = tested on: blackgrass; assay: Test A preemergence; type: in vivo, Alopecurus myosuroides
Outline: as §1

[17] = tested on: goosegrass; assay: Test A postemergence; type: in vivo, Eleusine indica
Outline: as §1

[18] = tested on: oat, wild; assay: Test A postemergence; type: in vivo, Avena fatua
Outline: as §1

[19] = tested on: ryegrass, Italian; assay: Test A preemergence; type: in vivo, Lolium multiflorum
Outline: as §1

[20] = tested on: soybean; assay: Test A postemergence; type: in vivo, Glycine max
Outline: as §1

[21] = tested on: ragweed; assay: Test A preemergence; type: in vivo, Ambrosia artemisiifolia
Outline: as §1

[22] = tested on: soybean; assay: Test A preemergence; type: in vivo, Glycine max
Outline: as §1

[23] = tested on: foxtail, giant; assay: Test A postemergence; type: in vivo, Setaria faberi
Outline: as §1

[24] = tested on: foxtail, giant; assay: Test A preemergence; type: in vivo, Setaria faberi
Outline: as §1

[25] = tested on: blackgrass; assay: Test A postemergence; type: in vivo, Alopecurus myosuroides
Outline: as §1

[26] = tested on: wheat; assay: Test A postemergence; type: in vivo, Triticum aestivum
Outline: as §1

[27] = tested on: kochia; assay: Test A postemergence; type: in vivo, Bassia scoparia
Outline: as §1

[28] = tested on: sedge, umbrella; assay: Test B flooded paddy test; type: in vivo, Cyperus difformis; conditions: 250 g ai/ha, Flood, 13 days, 0 to 100 scale (0 no effect, 100 complete control)
Outline: as §2

[29] = 125 g ai/ha, postemergence, 10 days, 0 to 100 scale, 0 no effect, 100 complete control
[30] = 500 g ai/ha, postemergence, 10 days, visual injury, 0 to 100 scale (0 no effect, 100 complete control)
[31] = 125 g ai/ha, visual injury after 10 days, 0 to 100 scale, 0 is no effect, 100 is complete control
[32] = 500 g ai/ha, 0 to 100 scale (0 no effect, 100 complete control), 10 days
[33] = 125 g ai/ha, postemergence, 10 days, visual injury, 0 to 100 scale (0 no effect, 100 complete control)
[34] = 500 g ai/ha, Postemergence, 0 to 100 scale

How did the “Galium plant response rating” value [1, 29] turn out when `C[C@H]1CN(C(=O)c2cccc(-n3cnc(C(C)(C)C)n3)c2)c2cccc(Cl)c2O1` [Compound 92] was run?
Its value is 100.

And the “Plant response rating, Galium” value [1, 30]?
The value was 100.

And the “Plant response rating, Goosegrass” value [2, 31]?
Its value is 100.

What about the “Plant response rating, Goosegrass” value [2, 32] of the same compound?
Its value is 100.

What about the “Pigweed, Palmer plant response rating” value [3, 29] of the same compound?
The value was 90.

What about the “Plant response rating, Pigweed, Palmer” value [3, 30] of the same compound?
The value was 90.

And the “Plant response rating, Ducksalad” value [4]?
Its value is 90.

What about the “Ragweed plant response rating” value [5, 29] of the same compound?
The value was 60.

And the “Plant response rating, Ragweed” value [5, 30]?
The value was 70.

And the “Horseweed plant response rating” value [6, 29]?
Its value is 0.

What about the “Plant response rating, Horseweed” value [6, 30] of the same compound?
Its value is 50.

What about the “Plant response rating, Pigweed, Palmer” value [7, 31] of the same compound?
The value was 100.

And the “Plant response rating, Pigweed, Palmer” value [7, 32]?
The value was 100.

And the “Ryegrass, Italian plant response rating” value [8, 29]?
Its value is 50.

And the “Plant response rating, Ryegrass, Italian” value [8, 30]?
Its value is 100.

And the “Plant response rating, Rice” value [9]?
Its value is 0.

And the “Corn plant response rating” value [10, 29]?
The value was 30.

What about the “Plant response rating, Corn” value [10, 30] of the same compound?
The value was 70.

And the “Plant response rating, Barnyardgrass” value [11]?
The value was 25.

What about the “Plant response rating, Oat, Wild” value [12, 31] of the same compound?
Its value is 80.

And the “Plant response rating, Oat, Wild” value [12, 32]?
The value was 90.

And the “Plant response rating, Wheat” value [13, 31]?
The value was 30.

What about the “Plant response rating, Wheat” value [13, 32] of the same compound?
Its value is 80.

And the “Plant response rating, Corn” value [14, 31]?
Its value is 30.

What about the “Plant response rating, Corn” value [14, 32] of the same compound?
Its value is 30.

And the “Plant response rating, Kochia” value [15, 31]?
Its value is 70.

And the “Plant response rating, Kochia” value [15, 32]?
The value was 100.

What about the “Plant response rating, Blackgrass” value [16, 31] of the same compound?
The value was 80.

And the “Plant response rating, Blackgrass” value [16, 32]?
The value was 90.

What about the “Goosegrass plant response rating” value [17, 29] of the same compound?
The value was 30.

What about the “Plant response rating, Goosegrass” value [17, 30] of the same compound?
The value was 50.

What about the “Oat, Wild plant response rating” value [18, 29] of the same compound?
The value was 50.

And the “Plant response rating, Oat, Wild” value [18, 30]?
Its value is 70.

And the “Plant response rating, Ryegrass, Italian” value [19, 31]?
The value was 100.

And the “Plant response rating, Ryegrass, Italian” value [19, 32]?
The value was 100.

What about the “Soybean plant response rating” value [20, 29] of the same compound?
Its value is 90.

What about the “Plant response rating, Soybean” value [20, 30] of the same compound?
The value was 100.

And the “Plant response rating, Ragweed” value [21, 31]?
The value was 0.

What about the “Plant response rating, Ragweed” value [21, 32] of the same compound?
Its value is 30.

And the “Plant response rating, Soybean” value [22, 31]?
The value was 50.

What about the “Plant response rating, Soybean” value [22, 32] of the same compound?
Its value is 90.

And the “Foxtail, Giant plant response rating” value [23, 29]?
The value was 30.

What about the “Plant response rating, Foxtail, Giant” value [23, 30] of the same compound?
Its value is 80.

And the “Plant response rating, Foxtail, Giant” value [24, 31]?
The value was 70.

What about the “Plant response rating, Foxtail, Giant” value [24, 32] of the same compound?
The value was 100.

What about the “Blackgrass plant response rating” value [25, 29] of the same compound?
Its value is 70.

What about the “Plant response rating, Blackgrass” value [25, 30] of the same compound?
Its value is 90.

And the “Wheat plant response rating” value [26, 29]?
The value was 40.

What about the “Plant response rating, Wheat” value [26, 30] of the same compound?
Its value is 50.

What about the “Kochia plant response rating” value [27, 29] of the same compound?
Its value is 80.

What about the “Plant response rating, Kochia” value [27, 30] of the same compound?
Its value is 90.

What about the “Plant response rating, Sedge, Umbrella” value [28] of the same compound?
The value was 0.

What does the source list for `Cc1cccc2c1O[C@@H](C)CN2C(=O)c1cccc(-n2ncnc2C(C)C)c1` [Compound 56]?
Plant response rating, Galium [1, 33]: 0; Plant response rating, Galium [1, 34]: 0; Plant response rating, Goosegrass [2, 31]: 0; Plant response rating, Goosegrass [2, 32]: 0; Plant response rating, Pigweed, Palmer [3, 33]: 0; Plant response rating, Pigweed, Palmer [3, 34]: 0; Plant response rating, Ducksalad [4]: 0; Plant response rating, Ragweed [5, 33]: 0; Plant response rating, Ragweed [5, 34]: 0; Plant response rating, Horseweed [6, 33]: 0; Plant response rating, Horseweed [6, 34]: 0; Plant response rating, Pigweed, Palmer [7, 31]: 0; Plant response rating, Pigweed, Palmer [7, 32]: 0; Plant response rating, Ryegrass, Italian [8, 33]: 0; Plant response rating, Ryegrass, Italian [8, 34]: 0; Plant response rating, Rice [9]: 0; Plant response rating, Corn [10, 33]: 0; Plant response rating, Corn [10, 34]: 0; Plant response rating, Barnyardgrass [11]: 0; Plant response rating, Oat, Wild [12, 31]: 0; Plant response rating, Oat, Wild [12, 32]: 0; Plant response rating, Wheat [13, 31]: 0; Plant response rating, Wheat [13, 32]: 0; Plant response rating, Corn [14, 31]: 0; Plant response rating, Corn [14, 32]: 0; Plant response rating, Kochia [15, 31]: 0; Plant response rating, Kochia [15, 32]: 0; Plant response rating, Blackgrass [16, 31]: 0; Plant response rating, Blackgrass [16, 32]: 0; Plant response rating, Goosegrass [17, 33]: 0; Plant response rating, Goosegrass [17, 34]: 0; Plant response rating, Oat, Wild [18, 33]: 0; Plant response rating, Oat, Wild [18, 34]: 0; Plant response rating, Ryegrass, Italian [19, 31]: 0; Plant response rating, Ryegrass, Italian [19, 32]: 0; Plant response rating, Soybean [20, 33]: 0; Plant response rating, Soybean [20, 34]: 10; Plant response rating, Ragweed [21, 31]: 0; Plant response rating, Ragweed [21, 32]: 0; Plant response rating, Soybean [22, 31]: 0; Plant response rating, Soybean [22, 32]: 0; Plant response rating, Foxtail, Giant [23, 33]: 0; Plant response rating, Foxtail, Giant [23, 34]: 0; Plant response rating, Foxtail, Giant [24, 31]: 0; Plant response rating, Foxtail, Giant [24, 32]: 0; Plant response rating, Blackgrass [25, 33]: 0; Plant response rating, Blackgrass [25, 34]: 0; Plant response rating, Wheat [26, 33]: 0; Plant response rating, Wheat [26, 34]: 0; Plant response rating, Kochia [27, 33]: 0; Plant response rating, Kochia [27, 34]: 0; Plant response rating, Sedge, Umbrella [28]: 0

Source: patent US20260262643A1, “HERBICIDAL BENZOXAZINES” (FMC CORPORATION, priority 2022, published 2026)
